The record followed here is ChEMBL document CHEMBL1201862, “PubChem BioAssay data set” (2004).

Some test systems named below: TK-10; SK-MEL-5; CAKI-1; OVCAR-4; BT-549; HCC 2998; PC-3; A498; SW-620; KM12; A549; NCI/ADR-RES; UACC-62; SF-295; COLO 205; MDA-MB-435; SR; Hs-578T; MCF7.
Common to all, as to test: DTP human tumour cell line panel, 48 h

The structures appear in SMILES notation.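 Each compound was tested at five concentrations against cells in 96-well plates for 48 hours. GI50 = concentration required for 50% inhibition of growth.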 The source made the active and inactive calls. Cut-off read from the data, not from the text of the source: active = GI50 up to about 1.1 µM and inactive = higher.

A word on the GI50: it is the concentration at which growth is held to half of that of the control.

For `COC(=O)[C@H](Cc1ccccc1)NC(=O)c1ccc(CNC(=O)/C=C/c2ccc(OCc3ccccc3)cc2)cc1`, the GI50 in the experiment on TK-10 is 13.5 µM (inactive); with SK-MEL-5, 7.87 µM (inactive); with CAKI-1, 12.1 µM (inactive); in the experiment on OVCAR-4 it was 6.55 µM (inactive); with BT-549 it was 21.5 µM (inactive); with HCC 2998, 24.3 µM (inactive). For the same compound, the GI50 with PC-3 was 14.7 µM (inactive); in the experiment with A498, 2.59 µM (inactive); in the experiment with SW-620, > 47.4 µM (inactive); in the experiment with KM12, 19.1 µM (inactive); with A549, 27 µM (inactive); with NCI/ADR-RES it was 30.4 µM (inactive). The GI50 in the experiment on UACC-62 is 4.44 µM (inactive); in the experiment on SF-295, 18.4 µM (inactive); in the experiment with COLO 205, > 73.3 µM (inactive); in the experiment with MDA-MB-435, 2.62 µM (inactive); in the experiment on SR, 12.1 µM (inactive); in the experiment with Hs-578T, 5.66 µM (inactive). Further, the GI50 in the experiment with MCF7 was 29.4 µM (inactive).
Turning to `COC(=O)c1ccc(C)cc1CC1Cc2c(C)cccc2C1=O` (centres undefined), the GI50 in the experiment with TK-10 is 11.5 µM (inactive); with SK-MEL-5, 5.82 µM (inactive); with CAKI-1 it was 6.4 µM (inactive); in the experiment with OVCAR-4, 25.5 µM (inactive); in the experiment with BT-549, 4.99 µM (inactive); with HCC 2998, 11.1 µM (inactive). Further, the GI50 in the experiment on PC-3 is 6.5 µM (inactive); with A498, 4.95 µM (inactive); in the experiment on SW-620 it was 3.85 µM (inactive); with KM12, 3.4 µM (inactive); in the experiment with A549, 7.57 µM (inactive); in the experiment on NCI/ADR-RES it was 3.35 µM (inactive). Also, the GI50 is 6.01 µM (inactive) in the experiment with UACC-62; 7.73 µM (inactive) with SF-295; 5.69 µM (inactive) in the experiment with COLO 205; 1.82 µM (inactive) with MDA-MB-435; 9.35 µM (inactive) in the experiment with SR; 8.55 µM (inactive) in the experiment on Hs-578T. The GI50 in the experiment with MCF7 is 2.11 µM (inactive).
With `Nc1cc2c3c(cccc3c1)C(=O)N(c1ccc(OCCN3CCCC3)cc1)C2=O`, the GI50 was 17.5 µM (inactive) with TK-10; 18.7 µM (inactive) in the experiment on SK-MEL-5; 45.3 µM (inactive) with CAKI-1; 17.1 µM (inactive) in the experiment with OVCAR-4; 15.8 µM (inactive) in the experiment with BT-549; 17.5 µM (inactive) in the experiment on HCC 2998. Also, the GI50 was 21.4 µM (inactive) in the experiment on PC-3; 36.5 µM (inactive) with A498; 29.4 µM (inactive) in the experiment on SW-620; 16.1 µM (inactive) with KM12; 16.2 µM (inactive) in the experiment on A549; 23.9 µM (inactive) in the experiment with NCI/ADR-RES. Further, the GI50 with UACC-62 was 16.6 µM (inactive); in the experiment on SF-295, 13.5 µM (inactive); in the experiment with COLO 205, 14.1 µM (inactive); in the experiment on MDA-MB-435, 18.7 µM (inactive); in the experiment with SR, 17.9 µM (inactive); in the experiment on Hs-578T it was 18.7 µM (inactive). Besides, the GI50 in the experiment with MCF7 was 17.3 µM (inactive).
For the compound `CC(C)c1nc(Cl)c(Cl)c(Cl)n1`, the GI50 with TK-10 was 11.4 µM (inactive); in the experiment with SK-MEL-5, 16.2 µM (inactive); in the experiment on CAKI-1 it was 2.09 µM (inactive); in the experiment on OVCAR-4, 15.5 µM (inactive); with BT-549, 0.621 µM (active); in the experiment with HCC 2998 it was 3.49 µM (inactive). Moreover, the GI50 with PC-3 was 4.31 µM (inactive); with A498, 23.8 µM (inactive); in the experiment on SW-620, 1.7 µM (inactive); in the experiment on KM12, 8.39 µM (inactive); in the experiment with A549, 2.58 µM (inactive); in the experiment with NCI/ADR-RES, 5.78 µM (inactive). Besides, the GI50 was 8.41 µM (inactive) with UACC-62; 14.5 µM (inactive) with SF-295; 2.71 µM (inactive) in the experiment with COLO 205; 4.2 µM (inactive) with MDA-MB-435; 0.431 µM (active) in the experiment on SR; 2.76 µM (inactive) in the experiment on Hs-578T. In addition, the GI50 in the experiment with MCF7 is 1.75 µM (inactive).
Take `CCOC(=O)CCSc1nc2ccc(I)cc2c(=O)n1Cc1ccccc1`: the GI50 is 39.4 µM (inactive) in the experiment on TK-10; 12.6 µM (inactive) in the experiment with SK-MEL-5; 2.67 µM (inactive) with CAKI-1; 19.5 µM (inactive) in the experiment with OVCAR-4; 35.6 µM (inactive) with BT-549; 26.5 µM (inactive) in the experiment on HCC 2998. Moreover, the GI50 was 41.7 µM (inactive) with PC-3; 24.6 µM (inactive) in the experiment with A498; 41.1 µM (inactive) in the experiment with SW-620; 22.3 µM (inactive) with KM12; 31.6 µM (inactive) in the experiment on A549; 23.7 µM (inactive) with NCI/ADR-RES. The GI50 with UACC-62 was 27.4 µM (inactive); with SF-295 it was 21.7 µM (inactive); in the experiment on COLO 205 it was 12.4 µM (inactive); in the experiment with MDA-MB-435, 27.5 µM (inactive); in the experiment on SR, 7.24 µM (inactive); with Hs-578T, 25.2 µM (inactive). For the same compound, the GI50 with MCF7 was 29.1 µM (inactive).
For the compound `COc1ccc(C(=O)/C=C/c2cc(O)c(O)cc2F)c(OC)c1`, the GI50 with TK-10 was 15.1 µM (inactive); with SK-MEL-5, 8.05 µM (inactive); with CAKI-1, 9.04 µM (inactive); in the experiment on OVCAR-4 it was 12.5 µM (inactive); in the experiment on BT-549 it was 6.52 µM (inactive); in the experiment on HCC 2998 it was 2.27 µM (inactive). Moreover, the GI50 in the experiment on PC-3 was 5.78 µM (inactive); with A498, 12.1 µM (inactive); in the experiment on SW-620 it was 6.82 µM (inactive); in the experiment on KM12, 5.16 µM (inactive); in the experiment with A549, 10.5 µM (inactive); with NCI/ADR-RES, 7.85 µM (inactive). Further, the GI50 in the experiment on UACC-62 is 10.9 µM (inactive); in the experiment on SF-295, 5.65 µM (inactive); in the experiment with COLO 205, 15.8 µM (inactive); with MDA-MB-435, 2.9 µM (inactive); in the experiment with SR it was 0.564 µM (active); in the experiment with Hs-578T it was 4.8 µM (inactive). For the same compound, in the experiment with MCF7, the GI50 is 0.395 µM (active).
Regarding `CC(C)(C)OC(=O)NC12C3C4C1C1C2C3C41NC(=O)OC(C)(C)C` (centres undefined), the GI50 is > 100 µM (inactive) in the experiment with TK-10; 26.5 µM (inactive) in the experiment with SK-MEL-5; > 100 µM (inactive) in the experiment with CAKI-1; 35.4 µM (inactive) in the experiment with OVCAR-4; 42.6 µM (inactive) with BT-549; > 100 µM (inactive) in the experiment on HCC 2998. The GI50 in the experiment on PC-3 is 61.2 µM (inactive); with A498, 50.5 µM (inactive); in the experiment on SW-620 it was 62.8 µM (inactive); with KM12, 15.8 µM (inactive); in the experiment with A549 it was 71.9 µM (inactive); in the experiment on NCI/ADR-RES, 22.5 µM (inactive). Besides, the GI50 was 54.3 µM (inactive) in the experiment with UACC-62; 48.1 µM (inactive) with SF-295; > 100 µM (inactive) in the experiment on COLO 205; 51.9 µM (inactive) with MDA-MB-435; 47.5 µM (inactive) in the experiment with SR; 23.7 µM (inactive) in the experiment on Hs-578T. Besides, the GI50 with MCF7 is 29.6 µM (inactive).
With `O=S(=O)(c1ccccc1)[C@H]1[C@@H]2O[C@@H]2C[C@@H]1O`, the GI50 with TK-10, with SK-MEL-5, in the experiment with CAKI-1, with OVCAR-4, with BT-549 and with HCC 2998 was > 100 µM (inactive) each time. Moreover, the GI50 in the experiment on PC-3, with A498, with SW-620, in the experiment with KM12, in the experiment with A549 and in the experiment with NCI/ADR-RES was > 100 µM (inactive) in each case. Also, the GI50 in the experiment with UACC-62, in the experiment with SF-295, in the experiment with COLO 205, in the experiment on MDA-MB-435, in the experiment on SR and in the experiment with Hs-578T was > 100 µM (inactive) in each case. The GI50 in the experiment with MCF7 is > 100 µM (inactive).
As to `CN(C)CC1CCCC(CN2CCCCC2)C1=O` (centres undefined), the GI50 in the experiment on TK-10 is 8.73 µM (inactive); in the experiment on SK-MEL-5, 18.7 µM (inactive); with CAKI-1 it was 1.53 µM (inactive); in the experiment on OVCAR-4, 4.25 µM (inactive); in the experiment on BT-549, 15.2 µM (inactive); with HCC 2998 it was 18.5 µM (inactive). For the same compound, the GI50 in the experiment with PC-3 was 15.6 µM (inactive); in the experiment with A498 it was 38.5 µM (inactive); with SW-620 it was 1.87 µM (inactive); with KM12 it was 19.4 µM (inactive); in the experiment with A549 it was > 62.1 µM (inactive); with NCI/ADR-RES, 3.89 µM (inactive). For the same compound, the GI50 with UACC-62 is 18.3 µM (inactive); with SF-295, > 93.5 µM (inactive); in the experiment with COLO 205, 3.08 µM (inactive); with MDA-MB-435, 17.1 µM (inactive); with SR, 10.8 µM (inactive); in the experiment on Hs-578T, 19.7 µM (inactive). Also, the GI50 in the experiment on MCF7 is 1.07 µM (active).
Consider `CC(C)COC(c1ccc2c(c1)OCO2)C(C)Br` (centres undefined), for which the GI50 in the experiment on TK-10 was 30.9 µM (inactive); in the experiment on SK-MEL-5, 18.7 µM (inactive); in the experiment on CAKI-1, 30.3 µM (inactive); in the experiment on OVCAR-4, 34.1 µM (inactive); with BT-549, 35.5 µM (inactive); with HCC 2998, 18.4 µM (inactive). The GI50 with PC-3 is 30.9 µM (inactive); in the experiment with A498, 33.4 µM (inactive); with SW-620, 28.9 µM (inactive); in the experiment with KM12 it was 22.9 µM (inactive); in the experiment on A549 it was 29.1 µM (inactive); in the experiment with NCI/ADR-RES, 28.4 µM (inactive). Moreover, the GI50 in the experiment with UACC-62 is 31.7 µM (inactive); in the experiment with SF-295, 20 µM (inactive); in the experiment on COLO 205, 22.6 µM (inactive); in the experiment on MDA-MB-435, 21.7 µM (inactive); with SR, 21.2 µM (inactive); with Hs-578T, 25.9 µM (inactive). For the same compound, the GI50 in the experiment with MCF7 was 31.4 µM (inactive).
In the case of `CCCc1c(O)c(=O)c2c(OC)cc(OC)c3c4c(OC)cc(OC)c5c(=O)c(O)c(CCC)c(c1c23)c54`, the GI50 is 1.9 µM (inactive) in the experiment with TK-10; 0.533 µM (active) with SK-MEL-5; 0.394 µM (active) in the experiment on CAKI-1; 2.56 µM (inactive) in the experiment on OVCAR-4; 0.34 µM (active) in the experiment on BT-549; 1.76 µM (inactive) in the experiment with HCC 2998. Moreover, the GI50 in the experiment on PC-3 is 0.443 µM (active); with A498, 0.678 µM (active); with SW-620, 1.13 µM (inactive); with KM12, 0.458 µM (active); in the experiment with A549, 0.386 µM (active); with NCI/ADR-RES, 0.9 µM (active). Further, the 50% growth inhibitory concentration (GI50) in the experiment with UACC-62 is 0.396 µM (active); in the experiment with SF-295, 0.37 µM (active); in the experiment on COLO 205, 2.44 µM (inactive); in the experiment with MDA-MB-435, 0.371 µM (active); in the experiment with SR, 0.141 µM (active); with Hs-578T it was 0.468 µM (active). Also, the GI50 in the experiment with MCF7 was 0.403 µM (active).
